Measurements published in ChEMBL document CHEMBL3751695, “Cationic lipid-conjugated hydrocortisone as selective antitumor agent” (Eur J Med Chem, 2016).
pIC50: −log10 of the molar value. Activity calls are given as the source filed them. No cut-off for these calls is given here.

Assays:
[1] = Cytotoxicity against mouse B16F10 cells after 72 hrs by MTT assay; type: functional, cell-based; details: B16-F10, 72 h
[2] = tested on: A549; assay: Cytotoxicity against human A549 cells after 72 hrs by MTT assay; type: functional, cell-based; details: A549, 72 h
[3] = tested on: MCF7; assay: Cytotoxicity against human MCF7 cells after 72 hrs by MTT assay; type: functional, cell-based; details: MCF7, 72 h
[4] = tested on: RAW264.7; assay: Cytotoxicity against mouse RAW264.7 cells after 72 hrs by MTT assay; type: cell-based; details: RAW264.7, 72 h
[5] = Cytotoxicity against mouse NIH/3T3 cells after 72 hrs by MTT assay; type: cell-based; details: NIH3T3, 72 h
[6] = tested on: RAW264.7; assay: Induction of apoptosis in mouse RAW264.7 cells assessed as late apoptotic cells at 20 uM after 24 hrs by annexin-V-FITC/propidium iodide staining based flow cytometry (reference value: 5.64 %); type: cell-based; details: raw264.7, 24 h
[7] = tested on: RAW264.7; assay: Induction of apoptosis in mouse RAW264.7 cells assessed as necrotic cells at 20 uM after 24 hrs by annexin-V-FITC/propidium iodide staining based flow cytometry (reference value: 1.81%); type: cell-based; details: raw264.7, 24 h
[8] = Induction of apoptosis in mouse NIH/3T3 cells assessed as viable cells at 20 uM after 24 hrs by annexin-V-FITC/propidium iodide staining based flow cytometry (reference value: 99.06 %); type: cell-based, NIH3T3; details: read-out: Activity
[9] = Induction of apoptosis in mouse NIH/3T3 cells assessed as early apoptotic cells at 20 uM after 24 hrs by annexin-V-FITC/propidium iodide staining based flow cytometry (reference value: 0.43 %); type: cell-based; details: nih3t3, 24 h
[10] = Induction of apoptosis in mouse NIH/3T3 cells assessed as late apoptotic cells at 20 uM after 24 hrs by annexin-V-FITC/propidium iodide staining based flow cytometry (reference value: 0.28 %); type: cell-based; details: nih3t3, 24 h
[11] = Induction of apoptosis in mouse NIH/3T3 cells assessed as necrotic cells at 20 uM after 24 hrs by annexin-V-FITC/propidium iodide staining based flow cytometry (reference value: 0.24 %); type: cell-based; details: nih3t3, 24 h
[12] = Cytotoxicity against mouse B16F10 cells at 10 uM after 72 hrs by MTT assay in presence of 10 uM HYD; type: functional, B16-F10
[13] = Cytotoxicity against mouse B16F10 cells at 10 and 20 uM after 72 hrs by MTT assay; type: functional, B16-F10
[14] = Cytotoxicity against mouse B16F10 cells at 20 uM after 72 hrs by MTT assay in presence of 20 uM HYD; type: functional, B16-F10
[15] = tested on: A549; assay: Induction of apoptosis in human A549 cells assessed as viable cells at 20 uM after 24 hrs by annexin-V-FITC/propidium iodide staining based flow cytometry (reference value: 87.96 %); type: functional; details: A549, 24 h, read-out: Activity
[16] = tested on: A549; assay: Induction of apoptosis in human A549 cells assessed as early apoptotic cells at 20 uM after 24 hrs by annexin-V-FITC/propidium iodide staining based flow cytometry (reference value: 1.41 %); type: functional
[17] = tested on: A549; assay: Induction of apoptosis in human A549 cells assessed as late apoptotic cells at 20 uM after 24 hrs by annexin-V-FITC/propidium iodide staining based flow cytometry (reference value: 7.40 %); type: functional
[18] = tested on: A549; assay: Induction of apoptosis in human A549 cells assessed as necrotic cells at 20 uM after 24 hrs by annexin-V-FITC/propidium iodide staining based flow cytometry (reference value: 3.23 %); type: functional
[19] = tested on: B16-F10; assay: Induction of apoptosis in mouse B16F10 cells assessed as viable cells at 20 uM after 24 hrs by annexin-V-FITC/propidium iodide staining based flow cytometry (reference value: 93.66 %); type: functional; details: B16-F10, 24 h, read-out: Activity
[20] = tested on: B16-F10; assay: Induction of apoptosis in mouse B16F10 cells assessed as early apoptotic cells at 20 uM after 24 hrs by annexin-V-FITC/propidium iodide staining based flow cytometry (reference value: 0.46 %); type: functional
[21] = tested on: B16-F10; assay: Induction of apoptosis in mouse B16F10 cells assessed as late apoptotic cells at 20 uM after 24 hrs by annexin-V-FITC/propidium iodide staining based flow cytometry (reference value: 4.47 %); type: functional
[22] = tested on: B16-F10; assay: Induction of apoptosis in mouse B16F10 cells assessed as necrotic cells at 20 uM after 24 hrs by annexin-V-FITC/propidium iodide staining based flow cytometry (reference value: 1.41 %); type: functional
[23] = Induction of apoptosis in mouse RAW264.7 cells assessed as viable cells at 20 uM after 24 hrs by annexin-V-FITC/propidium iodide staining based flow cytometry (reference value: 89.11 %); type: cell-based; details: read-out: Activity
[24] = tested on: RAW264.7; assay: Induction of apoptosis in mouse RAW264.7 cells assessed as early apoptotic cells at 20 uM after 24 hrs by annexin-V-FITC/propidium iodide staining based flow cytometry (reference value: 3.44 %); type: cell-based; details: raw264.7, 24 h
[25] = tested on: B16-F10; assay: Induction of apoptosis in mouse B16F10 cells assessed as increased Bax expression at 20 uM after 36 hrs by western blot analysis; type: functional, cell-based
[26] = tested on: B16-F10; assay: Induction of apoptosis in mouse B16F10 cells assessed as increase in cleaved caspase 3 level at 20 uM after 36 hrs by western blot analysis; type: functional, cell-based
[27] = tested on: B16-F10; assay: Induction of apoptosis in mouse B16F10 cells assessed as increase in p53 expression at 20 uM after 36 hrs by […]; type: functional, cell-based
[28] = Cell cycle arrest in mouse B16F10 cells assessed as accumulation at subG0/G1 phase at 20 uM after 24 hrs by propidium iodide staining based flow cytometry (reference value: 40.7 %); type: functional; details: B16-F10
[29] = Cell cycle arrest in mouse B16F10 cells assessed as accumulation at G1 phase at 20 uM after 24 hrs by propidium iodide staining based flow cytometry (reference value: 38.8 %); type: functional; details: B16-F10
[30] = Cell cycle arrest in mouse B16F10 cells assessed as accumulation at S phase at 20 uM after 24 hrs by propidium iodide staining based flow cytometry (reference value: 5.4 %); type: functional; details: B16-F10
[31] = Cell cycle arrest in mouse B16F10 cells assessed as accumulation at G2/M phase at 20 uM after 24 hrs by propidium iodide staining based flow cytometry (reference value: 15.2 %); type: functional; details: B16-F10
[32] = tested on: B16-F10; assay: Antitumor activity against mouse B16F10 cells xenografted in C57BL/J mouse assessed as inhibition of tumor growth at 6.11 mg/kg, ip; type: functional, organism-based
[33] = Toxicity in C57BL/J mouse xenografted with mouse B16F10 cells assessed as mortality rate at 6.11 mg/kg, ip measured 45 days after tumor inoculation; type: organism-based, B16-F10; details: in vivo, read-out: Activity
[34] = organism: Gallus gallus; assay: Antiangiogenic activity in chicken embryo assessed as inhibition of neovascularization at 40 uM after 4 hrs by microscopic analysis; type: functional, tissue-based
[35] = tested on: B16-F10; assay: Induction of apoptosis in mouse B16F10 cells assessed as increase in ratio of Bax/Bcl2 level at 20 uM after 36 hrs by western blot analysis (reference value: 0.2); type: functional
[36] = tested on: B16-F10; assay: Induction of apoptosis in mouse B16F10 cells assessed as increase in cytochrome C level at 20 uM after 36 hrs by western blot analysis; type: functional, cell-based
[37] = Antitumor activity in mouse B16F10 cells xenografted in C57BL/J mouse assessed as increase in ratio of Bax/Bcl2 in tumor lysates at 6.11 mg/kg, ip by western blot analysis (reference value: 0.4); type: functional, Neoplasm, B16-F10
[38] = Cytotoxicity against human SKOV3 cells after 72 hrs by MTT assay; type: functional, cell-based; details: SK-OV-3, 72 h
[39] = tested on: HeLa; assay: Cytotoxicity against human HeLa cells after 72 hrs by MTT assay; type: functional, cell-based
[40] = tested on: MDA-MB-231; assay: Induction of apoptosis in human MDA-MB-231 cells assessed as viable cells at 20 uM after 24 hrs by annexin-V-FITC/propidium iodide staining based flow cytometry (reference value: 90.77 %); type: functional; details: MDA-MB-231, 24 h, read-out: Activity
[41] = tested on: MDA-MB-231; assay: Induction of apoptosis in human MDA-MB-231 cells assessed as early apoptotic cells at 20 uM after 24 hrs by annexin-V-FITC/propidium iodide staining based flow cytometry (reference value: 0.58 %); type: functional
[42] = tested on: MDA-MB-231; assay: Induction of apoptosis in human MDA-MB-231 cells assessed as late apoptotic cells at 20 uM after 24 hrs by annexin-V-FITC/propidium iodide staining based flow cytometry (reference value: 3.25 %); type: functional
[43] = tested on: MDA-MB-231; assay: Induction of apoptosis in human MDA-MB-231 cells assessed as necrotic cells at 20 uM after 24 hrs by annexin-V-FITC/propidium iodide staining based flow cytometry (reference value: 5.40 %); type: functional

Work on `CCCCCCCCCCCC[N+](C)(CCCCCCCCCCCC)CCNC(=O)[C@@]1(O)CC[C@H]2[C@@H]3CCC4=CC(=O)CC[C@]4(C)[C@H]3[C@@H](O)C[C@@]21C` yielded a pIC50 [1] of 5.47, a pIC50 [2] of 5.47 and a pIC50 [3] of 5.34. The pIC50 [4] was 5.40 and the pIC50 [5] was 5.47.
`CCCCCCCCCCCCCC[N+](C)(CCCCCCCCCCCCCC)CCNC(=O)[C@@]1(O)CC[C@H]2[C@@H]3CCC4=CC(=O)CC[C@]4(C)[C@H]3[C@@H](O)C[C@@]21C` gave a pIC50 [1] of 4.79, a pIC50 [2] of 5.48 and a pIC50 [3] of 4.87. The pIC50 [4] was 5.06 and the pIC50 [5] was 5.31.
`CCCCCCCCCCCCCCCC[N+](C)(CCCCCCCCCCCCCCCC)CCNC(=O)OC(C)(C)C.[Cl-]` gave an Activity [6] of 4.18%, an Activity [7] of 0.86% and a viability at 24 h, 20 µM [8] of 94.9%. For the same compound, the Activity [9] was 0.94%, the Activity [10] was 0.96% and the Activity [11] was 3.23%. The Activity [12] was 20%, the Activity [13] was 20% and the Activity [14] was 20%. For the same compound, the viability at 20 µM [15] was 81.7%, the Activity [16] was 2.7% and the Activity [17] was 13.95%. For the same compound, the Activity [18] was 1.65%, the viability at 20 µM [19] was 81.5% and the Activity [20] was 1.75%. For the same compound, the Activity [21] was 12.56%, the Activity [22] was 4.16% and the viability at 24 h, 20 µM [23] was 91.3%. For the same compound, the Activity [24] was 3.66%.
In the case of `CCCCCCCCCC[N+](C)(CCCCCCCCCC)CCNC(=O)[C@@]1(O)CC[C@H]2[C@@H]3CCC4=CC(=O)CC[C@]4(C)[C@H]3[C@@H](O)C[C@@]21C`, the pIC50 [1] was 5.33, the pIC50 [2] was 4.90 and the pIC50 [3] was 5.43. It also gave a pIC50 [4] of 5.21 and a pIC50 [5] of 5.42.
`C[C@]12CCC(=O)C=C1CC[C@@H]1[C@@H]2[C@@H](O)C[C@@]2(C)[C@H]1CC[C@]2(O)C(=O)CO` [HYDROCORTISONE] gave an Activity [6] of 3.13%, an Activity [7] of 0.69% and a viability at 24 h, 20 µM [8] of 99.5%. It also gave an Activity [9] of 0.01%, an Activity [10] of 0.16% and an Activity [11] of 0.1%. For the same compound, the Activity [25] was “Active”, the Activity [26] was “Active” and the Activity [27] was “Active”. The Activity [28] was 56.6%, the Activity [29] was 20.9% and the Activity [30] was 4.6%. The Activity [31] was 17.9%, the inhibition [32] was “Active” and the mortality at 1080 h [33] was 70%. For the same compound, the inhibition [34] was “inactive”, the Ratio [35] was 0.3 and the Activity [36] was “Active”. The Ratio [37] was 0.8, the pIC50 [1] was < 4.70 and the pIC50 [2] was < 4.70. For the same compound, the pIC50 [3] was < 4.70, the pIC50 [38] was < 4.70 and the pIC50 [39] was < 4.70. The pIC50 [4] was < 4.70, the pIC50 [5] was < 4.70 and the viability at 20 µM [15] was 88.4%. For the same compound, the Activity [16] was 1.55%, the Activity [17] was 7.09% and the Activity [18] was 2.97%. For the same compound, the viability at 20 µM [19] was 89%, the Activity [20] was 0.77% and the Activity [21] was 9.14%. The Activity [22] was 1.04%, the viability at 20 µM [40] was 87.4% and the Activity [41] was 2.05%. The Activity [42] was 8.1%, the Activity [43] was 2.46% and the viability at 24 h, 20 µM [23] was 93.8%. It also gave an Activity [24] of 2.39%.
For `CCCCCCCC[N+](C)(CCCCCCCC)CCNC(=O)[C@@]1(O)CC[C@H]2[C@@H]3CCC4=CC(=O)CC[C@]4(C)[C@H]3[C@@H](O)C[C@@]21C`, the pIC50 [1] was 5.35, the pIC50 [2] was 4.75 and the pIC50 [3] was 5.17. For the same compound, the pIC50 [4] was 4.90 and the pIC50 [5] was 5.13.
